Several values for one entry are separate records, joined by “and”; a condition that tells them apart may be missing. Identical values can stand only once. Like-named read-outs stand apart in the source and are kept apart here.
Experiments:
CXF HCC-2998 = assay: CellTiter-Blue 2D monolayer assay (Example 1), colon; assay type: cell-based, human; details: for Test/Control (%): 72 h
Description: (§1) Compound 85 was assessed in 10 human tumor cell lines (see Table 3) for anti-cancer activity in vitro using a CellTiter-Blue® based 2D monolayer assay.
(§2) CellTiter-Blue® Cell Viability Assay: Tumor cells were grown at 37° C. in a humidified atmosphere with 5% CO2 in RPMI medium, supplemented with 10% (v/v) fetal calf serum and 50 μg/ml gentamicin (140 μl/well). Cultures were incubated at 37° C. and 5% CO2 in a humidified atmosphere. After 24 hours, 10 μl of Compound 85 was added, and left on the cells for another 72 hours (incubation period). Compound 85 was tested at 5 concentrations (0.003 μM, 0.03 μM, 0.3 μM, 3 μM, and 30 μM) and serially diluted in DMSO, mixed with cell culture medium, and added to the assay plates by using a Tecan Freedom EVO 200 robotic platform. The DMSO concentration was kept constant at 0.3% yip across the assay plate. Every 96 well plate included six DMSO-treated control wells and Compound 85-treated wells in duplicate at 5 concentrations. Viability of cells was quantified using the CellTiter-Blue® cell viability assay (Promega G8081). After incubation of cells, the CellTiter-Blue® reagent was brought to ambient temperature. Next, 20 μl of CellTiter-Blue® reagent were added to each well. After incubation tier up to 4 hours, fluorescence (FU) was measured using the EnSpire® multimode plate reader (Perkin Elmer) ([…]).
(§3) Data Evaluation: Sigmoidal concentration-response curves were fitted to the data points (test-versus-control; T/C values) obtained for each tumor model using 4 parameter non-linear curve fit (Charles River DRS Datawarehouse Software). Drug effects are expressed in terms of the percentage of the fluorescence signal, obtained by comparison of the mean signal in the treated wells with the mean signal of the untreated controls (T/C-value [%]) (Table 4). IC50 and IC70 values were reported as relative and absolute IC50 and IC70 values (Table 5). The absolute IC50 and IC70 values reflect the concentration of Compound 85 that achieves T/C=50% and T/C=30%, respectively. The relative IC50 value is the concentration of Compound 85 that gives a response half way between the top and bottom plateau of the sigmoidal concentration-response curve (inflection point of the curve).

[1] = system: 10 human tumor cell lines; assay: CellTiter-Blue 2D monolayer assay (Example 1), whole panel; assay type: cell-based
Description: as §1, §2, §3

[2] = geometric mean over 10 cell lines

Q: `CC(C)(O)Cn1nc(-c2ccccc2)c2c(Cl)c(-c3ccccc3)nnc21` [Compound 85] was tested. Which “Rel. IC70” value (CXF HCC-2998) did it give?
A: 1.630 µM

Q: What about the “Test/Control (%)” value (CXF HCC-2998; 0.003 μM) of the same molecule?
A: 97%

Q: And the “Test/Control (%)” value (CXF HCC-2998; 0.03 μM)?
A: 100%

Q: And the “Test/Control (%)” value (CXF HCC-2998; 0.3 μM)?
A: 90%

Q: What about the “Test/Control (%)” value (CXF HCC-2998; 3 μM) of the same molecule?
A: 13%

Q: What about the “Test/Control (%)” value (CXF HCC-2998; 30 μM) of the same molecule?
A: 1%

Q: What about the “Abs. IC70” value (CXF HCC-2998; T/C=30%) of the same molecule?
A: 1.628 µM

Q: What about the IC50 (CXF HCC-2998; T/C=50%, read-out: Abs. IC50) of the same molecule?
A: 1.02 µM

Q: And the “Bot. (%)” value (CXF HCC-2998; bottom plateau of curve)?
A: 1%

Q: And the IC50 (CXF HCC-2998; read-out: Rel. IC50)?
A: 1.03 µM

Q: And the “Top (%)” value (CXF HCC-2998; top plateau of curve)?
A: 99%

Q: What about the “inhibition of the tumor cell growth” value ([1]; all cell lines of Table 3) of the same molecule?
A: concentration-dependent inhibition

Q: And the “Geometric mean Abs. IC70” value [1, 2]?
A: 1.258 µM

Q: What about the “Geometric mean Rel. IC70” value [1, 2] of the same molecule?
A: 1.226 µM

Q: And the IC50 ([1]; geometric mean over 10 cell lines, read-out: Geometric mean Abs. IC50)?
A: 0.95 µM and 0.948 µM

Q: What about the IC50 ([1]; geometric mean over 10 cell lines, read-out: Geometric mean Rel. IC50) of the same molecule?
A: 0.926 µM
